In ChEMBL document CHEMBL3885861, “Open TG-GATES”:

Species: Rattus norvegicus
Experiment: Open TG-GATES - Regimen: Single
Format: toxicity, organism-based, Sprague-Dawley
Parameters: regimen Single, gender Male, age 6 weeks
Conditions: in vivo, po, route gavage; for APTT / Bas / Eos / Fbg / Hb / Ht / Lym / MCH / MCHC / MCV / Mono / Neu / PT / Plat / RBC / Ret / WBC: tissue Blood; for KIDNEY_L / KIDNEY_R / KIDNEY_TOTAL: tissue Kidney; for LIVER: tissue Liver; for ALP / ALT / AST / BUN / CRE / Ca / DBIL / GLC / K / LDH / Na / PL / RALB / TBIL / TC / TG / TP / gamma-GTP / IP: tissue Plasma
[1] = 0 mg/kg, 3 h, dose level Control
[2] = 0 mg/kg, 6 h, dose level Control
[3] = 0 mg/kg, 9 h, dose level Control
[4] = 0 mg/kg, 24 h, dose level Control

Molecule `Oc1ncnc2[nH]ncc12` [ALLOPURINOL] has a TERMINAL_BW [1] of 209.8 g, an APTT [1] of 16.7 s and a Bas [1] of 0%. It also gave an Eos [1] of 0.8%, a Fbg [1] of 211 mg/dL and a Hb [1] of 14 g/dL. For the same molecule, the Ht [1] was 41.7%, the Lym [1] was 73.2% and the MCH [1] was 21.9 pg. For the same molecule, the MCHC [1] was 33.7%, the MCV [1] was 65.1 fL and the Mono [1] was 7.4%. It also gave a Neu [1] of 18.6%, a PT [1] of 12.3 s and a Plat [1] of 111.5 x10_4/uL. The RBC [1] was 641.2 x10_4/ul, the Ret [1] was 8.1% and the WBC [1] was 95.8 x10_2/uL. The KIDNEY_L [1] was 1 g, the KIDNEY_R [1] was 1 g and the KIDNEY_TOTAL [1] was 1.9 g. It also gave an LIVER [1] of 10.1 g, an ALP [1] of 925 IU/L and an ALT [1] of 30.8 IU/L. It also gave an AST [1] of 60 IU/L, a BUN [1] of 12 mg/dL and a CRE [1] of 0.5 mg/dL. The Ca [1] was 10.9 mg/dL, the DBIL [1] was 0.058 mg/dL and the GLC [1] was 189.4 mg/dL. It also gave a K [1] of 4.8 meq/L, an LDH [1] of 96.6 IU/L and a Na [1] of 139.2 meq/L. It also gave a PL [1] of 137.4 mg/dL, an RALB [1] of 3.7 g/dL and a TBIL [1] of 0.4 mg/dL. It also gave a TC [1] of 71.8 mg/dL, a TG [1] of 59.4 mg/dL and a TP [1] of 5.6 g/dL. The gamma-GTP [1] was 1.4 IU/L, the TERMINAL_BW [2] was 210 g and the APTT [2] was 16.3 s. It also gave a Bas [2] of 0%, an Eos [2] of 1% and a Fbg [2] of 212.6 mg/dL. It also gave a Hb [2] of 14.1 g/dL, a Ht [2] of 42% and a Lym [2] of 80%. It also gave an MCH [2] of 22.2 pg, an MCHC [2] of 33.4% and an MCV [2] of 66.3 fL. It also gave a Mono [2] of 5.6%, a Neu [2] of 13.6% and a PT [2] of 12.3 s. For the same molecule, the Plat [2] was 111.5 x10_4/uL, the RBC [2] was 634 x10_4/ul and the Ret [2] was 8.2%. It also gave a WBC [2] of 98.8 x10_2/uL, a KIDNEY_L [2] of 0.9 g and a KIDNEY_R [2] of 0.9 g. It also gave a KIDNEY_TOTAL [2] of 1.8 g, an LIVER [2] of 9.5 g and an ALP [2] of 787 IU/L. For the same molecule, the ALT [2] was 31.8 IU/L, the AST [2] was 62.2 IU/L and the BUN [2] was 11.2 mg/dL. It also gave a CRE [2] of 0.4 mg/dL, a Ca [2] of 11.1 mg/dL and a DBIL [2] of 0.032 mg/dL. For the same molecule, the GLC [2] was 185.4 mg/dL, the K [2] was 5 meq/L and the LDH [2] was 96.6 IU/L. The Na [2] was 139 meq/L, the PL [2] was 132 mg/dL and the RALB [2] was 3.8 g/dL. It also gave a TBIL [2] of 0.3 mg/dL, a TC [2] of 71.8 mg/dL and a TG [2] of 54.4 mg/dL. It also gave a TP [2] of 5.6 g/dL, a gamma-GTP [2] of 0.8 IU/L and a TERMINAL_BW [3] of 204.6 g. It also gave an APTT [3] of 16.6 s, a Bas [3] of 0% and an Eos [3] of 1%. It also gave a Fbg [3] of 221.2 mg/dL, a Hb [3] of 13.8 g/dL and a Ht [3] of 41.1%. For the same molecule, the Lym [3] was 71.4%, the MCH [3] was 21.8 pg and the MCHC [3] was 33.7%. For the same molecule, the MCV [3] was 64.8 fL, the Mono [3] was 9.6% and the Neu [3] was 18%. For the same molecule, the PT [3] was 12.3 s, the RBC [3] was 633.4 x10_4/ul and the Ret [3] was 7.5%. For the same molecule, the WBC [3] was 81.8 x10_2/uL, the KIDNEY_L [3] was 0.9 g and the KIDNEY_R [3] was 0.9 g. For the same molecule, the KIDNEY_TOTAL [3] was 1.9 g, the LIVER [3] was 9 g and the ALP [3] was 761 IU/L. For the same molecule, the ALT [3] was 28.6 IU/L, the AST [3] was 61.2 IU/L and the BUN [3] was 12.4 mg/dL. For the same molecule, the CRE [3] was 0.4 mg/dL, the DBIL [3] was 0.018 mg/dL and the GLC [3] was 197.8 mg/dL. It also gave an IP [3] of 11.2 mg/dL, a K [3] of 4.7 meq/L and a Na [3] of 139.2 meq/L. It also gave a PL [3] of 136.4 mg/dL, an RALB [3] of 3.8 g/dL and a TBIL [3] of 0.4 mg/dL. The TC [3] was 73 mg/dL, the TG [3] was 48 mg/dL and the TP [3] was 5.7 g/dL. It also gave a gamma-GTP [3] of 1.2 IU/L, a TERMINAL_BW [4] of 223.3 g and an APTT [4] of 16.3 s. It also gave a Bas [4] of 0.2%, an Eos [4] of 0.8% and a Fbg [4] of 219 mg/dL. For the same molecule, the Hb [4] was 13.4 g/dL, the Ht [4] was 39.8% and the Lym [4] was 72%. It also gave an MCH [4] of 21.8 pg, an MCHC [4] of 33.6% and an MCV [4] of 65 fL. It also gave a Mono [4] of 12.4%, a Neu [4] of 14.8% and a PT [4] of 12 s. The Plat [4] was 110.8 x10_4/uL, the RBC [4] was 613.4 x10_4/ul and the Ret [4] was 8.1%. For the same molecule, the WBC [4] was 97 x10_2/uL, the KIDNEY_L [4] was 1 g and the KIDNEY_R [4] was 1 g. The KIDNEY_TOTAL [4] was 2 g, the ALP [4] was 987.2 IU/L and the ALT [4] was 31.2 IU/L. For the same molecule, the AST [4] was 63.4 IU/L, the BUN [4] was 18 mg/dL and the CRE [4] was 0.5 mg/dL. The DBIL [4] was 0.02 mg/dL, the GLC [4] was 193.2 mg/dL and the IP [4] was 8.4 mg/dL. It also gave a K [4] of 5.1 meq/L, an LDH [4] of 94 IU/L and a Na [4] of 138 meq/L. For the same molecule, the PL [4] was 153.4 mg/dL, the RALB [4] was 3.8 g/dL and the TBIL [4] was 0.3 mg/dL. For the same molecule, the TC [4] was 81.6 mg/dL, the TG [4] was 99 mg/dL and the TP [4] was 5.7 g/dL. It also gave a gamma-GTP [4] of 1.2 IU/L and a TERMINAL_BW (15 mg/kg, 3 h, dose level Low) of 213.7 g.
